From US5180735A, “Cyclohexanol derivatives, production and use thereof” (Takeda Chemical Industries, Ltd., priority 1989, dated 1993)

How the values were obtained:
[1] = tested on: angiogenesis due to bFGF (rat cornea); assay: Angiogenesis inhibitory action by the rat cornea micropocket method; format: in vivo, male Sprague-Dawley rats; conditions: sustained release pellet, 20 μg sample, next to bFGF pellet (250 ng) in cornea; observed after 10 days
Excerpt: Angiogenesis inhibitory action by the rat cornea micropocket method
Essentially the same method of Gimbrone et al. [J. National Cancer Institute 52:413-419 (1974)] was follows.
Specifically, adult male Sprague-Dawley rats (11 to 16 week old) were anesthetized with nembtal and locally anesthetized by instillation of xylocaine eyedrops onto the eyeball. The cornea was incised to a length of about 2 mm at about 2 mm inside from the corneal circumference by means of an injection needle, and a basic fibroblast growth factor (bFGF, bovine brain-derived, purified product, R & D Inc.) and a sustained release pellet containing the test sample were inserted side by side into the incision so that the bFGF pellet was located on the central side in the cornea. In the control group, the bFGF pellet and a sample-free pellet were inserted into the cornea. After 10 days, the cornea was observed under a stereoscopic microscope.
The sustained release pellets were prepared in the following manner. An ethylene-vinyl acetate copolymer (Takeda Chemical Industries, Ltd.) was dissolved in dichloromethane to a concentration of 8%. A 3 μl portion of the solution was air-dried on a glass dish, an aqueous solution of bFGF (250 ng) was then placed thereon and air-dried and, finally 3 μl of the above-mentioned ethylene-vinyl acetate copolymer solution was placed further thereon and air-dried to give a sandwich sheet. This sandwich sheet was made round into a bFGF pellet. The test sample pellets were prepared by dissolving each sample in ethanol to a concentration of 20 μg/2 μl, mixing the solution with 6 μl of an ethylene-vinyl acetate copolymer solution, air-drying the mixed solution on a glass dish and making the thus-obtained sheet round.
In the above Table 1, the number of rats subjected to the test was shown by denominator, and the number of rats whose […] due to bFGF was retarded or weakened by administration of the test sample was shown by numerator. In the judgment, +means an inhibition rate of 70% or more, and ±means that of less than 70% but exceeding 40%.

M5076 cells = assay: Antitumor test in mice inoculated subcutaneously with M5076 cells (tumor size, T/C); format: in vivo, C57BL/6 mice; conditions: Mus musculus, M5076, sc, 312 h, 30 mg/kg, subcutaneous, 10 times in total; tumor size after 13 days; read-out: T/C (%) (ratio of tumor size to control group)
Description: C57BL/6 mice (a group consisting of 6 mice) were inoculated subcutaneously at the dorsolateral area with 2×10^6 M5076 cells, and then a test compound dissolved in a 5% gum arabic physiological saline solution was subcutaneously administered 10 times in total, i.e. 1st, 2nd, 4th, 5th, 6th, 7th, 8th, 9th, 11th and 12th day after the inoculation. After 13 days, the major axis (a) and the minor axis (b) of the tumor tissue were measured to determine the tumor size by the calculation formula of a×b^2 ×1/2. The ratio of the tumor size thus calculated to the tumor size of animals in the control group was shown by T/C (%).

SMILES | Inhibitory Rate (rats whose angiogenesis due to bFGF was retarded or weakened / rats subjected to the test) [1] | Judgment (Angiogenesis Inhibitory Activity) [1] | response vs control in vivo at 30 mg/kg (M5076 cells) [%]
CO[C@@H]1[C@H](OC(=O)NC(=O)CCl)CC[C@](O)(CCl)[C@H]1[C@@]1(C)O[C@@H]1CC=C(C)C [Example 1c, 4-O-(Chloroacetylcarbamoyl)-2-(1,2-epoxy-1,5-dimethyl-4-hexenyl)-3-methoxy-1-chloromethyl-1,4-cyclohexanediol] | 5/5 | + (an inhibition rate of 70% or more) | 20
CO[C@@H]1[C@H](OC(=O)NC(=O)C(C)CCl)CC[C@](O)(CCl)[C@H]1[C@@]1(C)O[C@@H]1CC=C(C)C (stereo partly shown) [Example 4, 4-O-(3-Chloro-2-methyl-propionylcarbamoyl)-2-(1,2-epoxy-1,5-dimethyl-4-hexenyl)-3-methoxy-1-chloromethyl-1,4-cyclohexanediol] | 3/5 | ± (that of less than 70% but exceeding 40%) | 
C=C(C)C(=O)NC(=O)O[C@@H]1CC[C@](O)(CCl)[C@@H]([C@@]2(C)O[C@@H]2CC=C(C)C)[C@@H]1OC [Example 3, 4-O-(methacryloylcarbamoyl)-2-(1,2-epoxy-1,5-dimethyl-4-hexenyl)-3-methoxy-1-chloromethyl-1,4-cyclohexanediol] | 4/7 | ± (that of less than 70% but exceeding 40%) | 36
CO[C@@H]1[C@H](OC(=O)NC(=O)CSc2nc3ccccc3s2)CC[C@](O)(CCl)[C@H]1[C@@]1(C)O[C@@H]1CC=C(C)C [Example 91] | 6/6 | + (an inhibition rate of 70% or more) | 
CO[C@@H]1[C@H](OC(N)=O)CC[C@](O)(C[S+](C)C)[C@H]1[C@@]1(C)O[C@@H]1CC=C(C)C [Example 70, 4-Carbamoyloxy-2-(1,2-epoxy-1,5-dimethyl-4-hexenyl)-3-methoxy-1-dimethylsulfoniomethyl-cyclohexanol iodide] | 5/6 | + (an inhibition rate of 70% or more) | 
CO[C@@H]1[C@H](O)CC[C@](O)(C[N+]2([O-])CCCC2)[C@H]1[C@@]1(C)O[C@@H]1CC=C(C)C [Example 48, 2-(1,2-Epoxy-1,5-dimethyl-4-hexenyl)-3-methoxy-1-(pyrrolidin-1-yl)methyl-1,4-cyclohexanediol N-oxide] | 4/7 | ± (that of less than 70% but exceeding 40%) | 
CO[C@@H]1[C@H](O)CC[C@](O)(CSC)[C@H]1[C@@]1(C)O[C@@H]1CC=C(C)C [Example 10, 2-(1,2-Epoxy-1,5-dimethyl-4-hexenyl)-3-methoxy-1-methylthiomethyl-1,4-cyclohexanediol] | 4/7 | ± (that of less than 70% but exceeding 40%) | 
